The results in this text go back to patent US20070249501A1 (priority 2004, published 2007).

Series [1] concerns tomato (cv. 870) seedlings. To be noted: in vivo.
For series [2], the system named is microbial populations in soil. The format is cell-based.
The test system of series [3] is Fusarium oxysporum f. sp. radicis-lycopersici (FORL). The format is cell-based.
The test system of series [4] is Sclerotium rolfsii. The format is cell-based.
The test system of series [5] is root-knot nematode Meloidogyne javanica. To be noted: in vivo.

Take `O=S([O-])S(=O)(=O)[O-].[K+].[K+]` [PMS, potassium metabisulfite]: the “root system development in treated soil” value in series [1] is “substantially stunted root system”. The “reduction of microbial populations in soil” value (“reduction” below) in series [2] is reported as “none of the tested industrial biocides was capable of significantly reducing microbial populations in soil”.
Turning to `C[N+](=O)[O-]` [nitromethane], the “control of FORL in soil (percent survival, FIG. 6)” value in series [3] was “no effect in controlling pests”. Besides, in series [4], the “control of S. rolfosii in soil (percent survival, FIG. 6)” value is recorded as “no effect in controlling pests”.
On to `ClCCBr` [BCE, ethylene bromochloride], for which the “root system development in treated soil” value in series [1] is listed as “substantially stunted root system”. Besides, in series [2], the “reduction” value is “none of the tested industrial biocides was capable of significantly reducing microbial populations in soil”.
Turning to `BrC(Br)Br` [BF, bromoform], the “reduction” value in series [2] was “none of the tested industrial biocides was capable of significantly reducing microbial populations in soil”.
In the case of `CN1CSC(=S)N(C)C1` [Dazomet, dazomet], the “effect on population densities of FORL, Verticillium dahliae, Macrophomina phaseolina and Streptomyces spp. in soil (FIG. 3)” value in series [2] is “the effect of bromopicrin was similar to the effect of the commercial fumigant Basamid”.
As to `O=[N+]([O-])CBr` [monobromonitromethane, bromonitromethane], the “control of FORL in soil (percent survival, FIG. 6)” value in series [3] is listed as “effective in controlling soil-borne fungi”. In addition, in series [4], the “control of S. rolfosii in soil (percent survival, FIG. 6)” value is reported as “effective in controlling soil-borne fungi”.
For `ClC=CCCl` [1,3-dichloropropene], the “galling index of tomato plant roots” value in series [5] was “zero”.
With `COc1ccc(C=CC(=O)O)cc1` [MCA, methoxy cinnamic acid], the “reduction” value in series [2] was “none of the tested industrial biocides was capable of significantly reducing microbial populations in soil”.
With `OCC(CBr)(CBr)CBr` [TBNPA, tribromoneopentyl alcohol], in series [2], the “reduction” value is recorded as “none of the tested industrial biocides was capable of significantly reducing microbial populations in soil”.
tetramethylammonium bromide [TMBr]: in series [2], the “reduction” value is “none of the tested industrial biocides was capable of significantly reducing microbial populations in soil”.
Regarding `OCC(CO)(CBr)CBr` [DBNPG, dibromoneopentyl glycol], in series [2], the “reduction” value is “none of the tested industrial biocides was capable of significantly reducing microbial populations in soil”.
The same measure, in the same setting: to tetrabromoethane [TBE] belongs “none of the tested industrial biocides was capable of significantly reducing microbial populations in soil”.
